Assay [1] has as its target T1, PARP-1 enzyme (Homo sapiens, UniProt P09874).
T1 construct: purchased Trevigen, Inc. 4676-096-K
Description: PARP-1 enzymatic activity assay (Trevigen 96-well kit 4676-096-K). The settings on record: 0.5 unit PARP-1, histone pre-coated plate, 60 min at room temperature; read-out: IC50 (nM), inhibitory effect on PARP-1 enzymatic activity. The class given is biochemical. The source says:
Measurement of the inhibitory effect of 1-(3-(4-(pyrimidin-2-yl)piperazine-1-carbonyl)benzyl)quinazoline-2,4(1H,3H)-dione and analogs on PARP-1 enzymatic activity
Briefly, PARP-1 catalyzes the NAD-dependent addition of poly(ADP-ribose) to its nuclear protein substrates such as histones. The assay kit measures the incorporation of biotynylated poly(ADP-ribose) onto histone proteins in a 96-well format.

Assay [2] relates to SW620 human colorectal cancer cells. Description: MTT based cell viability assay: potentiation of the growth inhibiting activity of MMS.
Description: Briefly, SW620 human colorectal cancer cells were used to measure the cell growth inhibiting activity of DNA alkylating anticancer drug MMS. […] SW620 cells were grown and maintained in RPMI1640 (Gibco) medium supplemented with 10% FBS (Hyclone). In the first day of experiment, 4000 cells were seeded to each well of a 96-well cell culture plate and incubated at 37° C. and 5% CO2 in a cell culture incubator overnight. In the next day, the cell culture medium was removed. […] The serial dilutions of the reference compounds and the compounds to be tested were made with a 1:3 and 1:10 fashion in DMSO. The 10-fold concentrated solutions of these compounds were made by mixing 10 μl of the serial dilutions in DMSO with 90 μl fresh medium. The final concentration of DMSO in the medium was 1%. The cells were incubated at 37° C. in 5% CO2 cell culture incubator for additional 5 days (120 hours). Afterwards, the 96-well cell culture plate was taken out and 20 μl of MTT solution was added to each well and incubated at 37° C. for 4 h. The medium was removed and 100 μl DMSO was added to each well. The 96-well cell culture plates were shaked adequately for 10 min and read in a Varioskan Flash plate reader (Thermo Fisher Scientific) at 520 and 690 nm. The data were analyzed by Prism 5 software (GraphPad). The obtained 520 nm absorbance readings subtracting corresponding 690 nm reading were analyzed and plotted against the Log scale of the compound concentrations.
In assay [3] the test system is Human breast cancer cell line T47D. Put plainly: Cell based caspase-3 activity assay: potentiation of MMS induced apoptosis. The conditions noted are these: read-out: EC50 (nM), potentiation of the apoptosis inducing activity of MMS. In outline:
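T47D cells were exposed for 24 h to compound plus a minimally apoptotic MMS dose (medium containing 11.1 μg/ml MMS). Lysates were incubated 3 h at 37 °C with (Ac-DEVD)2-R110 caspase-3 substrate (20 μM in added buffer) and read at ex 496/em 520 nm. EC50 came from a sigmoidal fit of RFU versus log concentration.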

Assay [4] deals with BRCA-2 deficient CAPAN-1 human pancreatic cancer cells. Put plainly: MTT based cell viability assay: growth inhibition of BRCA-2 deficient CAPAN-1 cells. The settings on record: 240 h, compound alone, 10 day assay.
Assay [5] deals with advanced breast cancer. The conditions noted are these: Phase II clinical trial; cited from earlier work.
[6] abbreviates: Homo sapiens, SW-620, 120 h, read-out: IC50 (nM), potentiation of the growth inhibiting activity of MMS, SW620 cells, 1.7 μg/ml MMS, 5 days (120 hours), MTT.
Where [7] appears, read: Homo sapiens, T47D, 24 h, T47D cells, 11.1 μg/ml MMS, 24 hours, intracellular caspase-3 activity.
Where [8] appears, read: read-out: IC50 (nM), potentiation of the growth inhibiting activity of MMS, SW620 cells, 1.7 μg/ml MMS, 5 days (120 hours), MTT.

Where two headings read alike, the source gives them in different places.

As usually defined, the EC50 is the midpoint of the concentration-response curve.

T1 sequence (P09874 whole entry): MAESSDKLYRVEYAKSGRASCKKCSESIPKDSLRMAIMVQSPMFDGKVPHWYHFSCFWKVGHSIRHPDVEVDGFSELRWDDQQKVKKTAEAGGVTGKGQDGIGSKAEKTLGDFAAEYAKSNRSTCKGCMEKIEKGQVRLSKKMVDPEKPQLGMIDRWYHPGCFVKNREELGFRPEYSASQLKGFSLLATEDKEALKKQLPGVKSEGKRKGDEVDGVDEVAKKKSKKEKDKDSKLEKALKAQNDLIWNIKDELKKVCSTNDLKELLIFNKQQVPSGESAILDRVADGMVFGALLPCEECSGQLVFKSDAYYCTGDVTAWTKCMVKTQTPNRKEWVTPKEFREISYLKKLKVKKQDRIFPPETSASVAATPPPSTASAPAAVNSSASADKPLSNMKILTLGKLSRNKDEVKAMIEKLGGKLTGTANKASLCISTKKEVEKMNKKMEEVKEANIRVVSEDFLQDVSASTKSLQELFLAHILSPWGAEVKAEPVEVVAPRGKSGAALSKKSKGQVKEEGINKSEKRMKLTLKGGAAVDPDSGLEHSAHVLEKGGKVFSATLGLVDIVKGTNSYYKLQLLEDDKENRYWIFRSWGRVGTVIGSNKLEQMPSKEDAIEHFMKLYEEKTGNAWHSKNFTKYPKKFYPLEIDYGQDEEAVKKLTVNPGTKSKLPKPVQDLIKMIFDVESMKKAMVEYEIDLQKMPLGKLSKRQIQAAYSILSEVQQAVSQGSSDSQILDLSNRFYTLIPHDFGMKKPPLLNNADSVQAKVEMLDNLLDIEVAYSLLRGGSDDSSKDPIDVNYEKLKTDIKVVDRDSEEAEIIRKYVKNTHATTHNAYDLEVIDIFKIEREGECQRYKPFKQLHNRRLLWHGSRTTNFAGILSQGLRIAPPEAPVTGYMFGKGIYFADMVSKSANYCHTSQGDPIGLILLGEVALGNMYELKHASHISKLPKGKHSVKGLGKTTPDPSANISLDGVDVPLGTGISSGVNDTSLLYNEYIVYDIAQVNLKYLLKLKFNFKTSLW

`O=C(c1ccccc1)N1CCN(C(=O)c2cccc(Cn3c(=O)[nH]c(=O)c4ccccc43)c2)CC1` [Example 8, 1-(3-(4-Benzoylpiperazine-1-carbonyl)benzyl)quinazoline-2,4(1H,3H)-dione]: the IC50 in assay [1] was 5.3 nM; in assay [2] (setting [6]) it was 112 nM; in assay [4] it was 2360 nM. For the same molecule, the EC50 in assay [3] (setting [7]) stood at 120 nM.
As to `O=C(c1cc(Cn2c(=O)[nH]c(=O)c3cc(F)ccc32)ccc1F)N1CCN(c2ncccn2)CC1` [Example 144, 6-Fluoro-1-(4-fluoro-3-(4-(pyrimidin-2-yl)piperazine-1-carbonyl)benzyl)quinazoline-2,4(1H,3H)-dione], the IC50 was 1.15 nM in assay [1], 2.8 nM in assay [2] (setting [6]) and 78 nM in assay [4]. In addition, in assay [3] (setting [7]), the EC50 was determined as 3.4 nM.
Take `O=C(c1cccc(Cn2c(=O)[nH]c(=O)c3cc(F)ccc32)c1)N1CCN(c2ncccn2)CC1` [Example 139, 6-Fluoro-1-(3-(4-(pyrimidin-2-yl)piperazine-1-carbonyl)benzyl)quinazoline-2,4(1H,3H)-dione]: the IC50 in assay [1] is 1.3 nM; in assay [2] (setting [6]) it was 16 nM; in assay [4], 36 nM. Also, the EC50 in assay [3] (setting [7]) came to 4 nM.
In the case of `O=C(c1cccc(Cn2c(=O)[nH]c(=O)c3ccccc32)c1)N1CCN(c2ccccn2)CC1` [Example 3, 1-(3-(4-(Pyridin-2-yl)piperazine-1-carbonyl)benzyl)quinazoline-2,4(1H,3H)-dione], the IC50 in assay [1] was 4.2 nM; in assay [2] (setting [6]) it was 90 nM; in assay [4] it was 445 nM. In assay [3] (setting [7]), the EC50 worked out at 56 nM.
On to `O=C(c1cccc(Cn2c(=O)[nH]c(=O)c3c(F)cccc32)c1)N1CCN(c2ncccn2)CC1` [Example 127, 5-Fluoro-1-(3-(4-(pyrimidin-2-yl)piperazine-1-carbonyl)benzyl)quinazoline-2,4(1H,3H)-dione], for which the IC50 in assay [1] worked out at 0.37 nM; in assay [2] (setting [6]), 13 nM; in assay [4] it was 44 nM. Besides, in assay [3] (setting [7]), the EC50 came to 4.1 nM.
The like results for `O=C(c1cc(Cn2c(=O)[nH]c(=O)c3c(F)cccc32)ccc1F)N1CCN(c2ncccn2)CC1` [Example 132, 5-Fluoro-1-(4-fluoro-3-(4-(pyrimidin-2-yl)piperazine-1-carbonyl)benzyl)quinazoline-2,4(1H,3H)-dione] were, in that order, 1.19 nM, 4.1 nM, 17 nM and 0.93 nM.
Take `O=C(c1cc(Cn2c(=O)[nH]c(=O)c3ccccc32)ccc1F)N1CCN(c2ncccn2)CC1` [Example 25, 1-(4-Fluoro-3-(4-(pyrimidin-2-yl)piperazine-1-carbonyl)benzyl)quinazoline-2,4(1H,3H)-dione]: the IC50 came out at 0.21 nM in assay [1], 9.8 nM in assay [2] (setting [8]) and 98 nM in assay [4]. For the same molecule, the EC50 in assay [3] (setting [7]) came out at 3.9 nM.
Turning to `O=C(c1cc(Cc2n[nH]c(=O)c3ccccc23)ccc1F)N1CCN(C(=O)C2CC2)CC1` [AZD2281, olaparib, reference compound], the “efficacy in treatment of advanced breast cancer” value in assay [5] is recorded as “effective”. Moreover, in assay [2] (Homo sapiens, SW-620, 120 h, read-out: IC50 (nM), potentiation of the growth inhibiting activity of MMS), the IC50 is 28 nM. Besides, the EC50 in assay [3] (Homo sapiens, T47D, 24 h) is 24 nM.
In the case of `O=C(c1cccc(Cn2c(=O)[nH]c(=O)c3ccccc32)c1)N1CCN(c2ncccn2)CC1` [Example 4, 1-(3-(4-(Pyrimidin-2-yl)piperazine-1-carbonyl)benzyl)quinazoline-2,4(1H,3H)-dione], the IC50 in assay [1] was found to be 0.96 nM; in assay [2] (setting [8]), 12 nM; in assay [4], 55 nM. Besides, the EC50 in assay [3] (T47D cells, 11.1 μg/ml MMS, 24 hours, intracellular caspase-3 activity) amounted to 12 nM.
As for `O=C(c1cc(Cn2c(=O)[nH]c(=O)c3c(F)cccc32)ccc1F)N1CCN(c2ccccn2)CC1` [Example 135, 5-Fluoro-1-(4-fluoro-3-(4-(pyridin-2-yl)piperazine-1-carbonyl)benzyl)quinazoline-2,4(1H,3H)-dione], the IC50 in assay [1] stood at 1.74 nM; in assay [2] (setting [6]), 6.8 nM. The EC50 in assay [3] (setting [7]) stood at 9.8 nM.
As to `O=C(c1cc(Cn2c(=O)[nH]c(=O)c3c(F)cccc32)ccc1F)N1CCN(c2nccs2)CC1` [Example 189, 5-Fluoro-1-(4-fluoro-3-(4-(thiazol-2-yl)piperazine-1-carbonyl)benzyl)quinazoline-2,4(1H,3H)-dione], the figures for the IC50 in assay [1], in assay [2] (setting [6]) and in assay [4] were 2.2 nM, 10 nM and 736 nM, respectively.
Regarding `O=C(c1cc(Cn2c(=O)[nH]c(=O)c3cc(F)ccc32)ccc1F)N1CCN(C(=O)C2CCCCC2)CC1` [Example 147, 1-(3-(4-(Cyclohexylcarbonyl)piperazine-1-carbonyl)-4-fluorobenzyl)-6-fluoroquinazoline-2,4(1H,3H)-dione], the IC50 is 1.2 nM in assay [1], 2.7 nM in assay [2] (setting [6]) and 47 nM in assay [4]. Moreover, the EC50 in assay [3] (setting [7]) stood at 3.4 nM.
In the case of `O=C(c1cc(Cn2c(=O)[nH]c(=O)c3ccccc32)ccc1F)N1CCN(C(=O)C2CCC2)CC1` [Example 44, 1-(3-(4-(Cyclobutylcarbonyl)piperazine-1-carbonyl)-4-fluorobenzyl)quinazoline-2,4(1H,3H)-dione], the IC50 in assay [1] came to 0.88 nM; in assay [2] (setting [6]) it was 6.8 nM; in assay [4] it was 318 nM. The EC50 in assay [3] (setting [7]) is 5.7 nM.
`O=C(c1cccc(Cn2c(=O)[nH]c(=O)c3ccccc32)c1)N1CCN(C(=O)C2CCCC2)CC1` [Example 14, 1-(3-(4-(Cyclopentylcarbonyl)piperazine-1-carbonyl)benzyl)quinazoline-2,4(1H,3H)-dione]: the figures for the IC50 in assay [1] and in assay [2] (setting [6]) were 2.3 nM and 102 nM, respectively. Moreover, the EC50 in assay [3] (setting [7]) worked out at 39 nM.
On to `O=C(c1cccc(Cn2c(=O)[nH]c(=O)c3cc(F)ccc32)c1)N1CCN(C(=O)C2CCCC2)CC1` [Example 143, 1-(3-(4-(Cyclopentylcarbonyl)piperazine-1-carbonyl)benzyl)-6-fluoroquinazoline-2,4(1H,3H)-dione], for which the IC50 turned out to be 15 nM in assay [2] (setting [6]) and 73 nM in assay [4]. Also, the EC50 in assay [3] (setting [7]) worked out at 6 nM.
Regarding `O=C(c1ccc(F)c(Cn2c(=O)[nH]c(=O)c3ccccc32)c1)N1CCN(c2ccccn2)CC1` [Example 51, 1-(6-Fluoro-3-(4-(pyridin-2-yl)piperazine-1-carbonyl)benzyl)quinazoline-2,4(1H,3H)-dione], the IC50 in assay [2] (setting [6]) came out at 33 nM; in assay [4] it was 402 nM. In addition, the EC50 in assay [3] (setting [7]) came to 20 nM.
Take `O=C(c1cccs1)N1CCN(C(=O)c2cc(Cn3c(=O)[nH]c(=O)c4c(Cl)cccc43)ccc2F)CC1` [Example 107, 5-Chloro-1-(4-fluoro-3-(4-(thiophene-2-carbonyl)piperazine-1-carbonyl)benzyl)quinazoline-2,4(1H,3H)-dione]: the IC50 in assay [2] (setting [6]) was determined as 6.3 nM; in assay [4], 161 nM. For the same molecule, the EC50 in assay [3] (setting [7]) came out at 9.5 nM.
As for `O=C(c1cccc(Cn2c(=O)[nH]c(=O)c3cc(Cl)ccc32)c1)N1CCN(C(=O)C2CCCCC2)CC1` [Example 113, 6-Chloro-1-(3-(4-(cyclohexylcarbonyl)piperazine-1-carbonyl)benzyl)quinazoline-2,4(1H,3H)-dione], the IC50 is 9.6 nM in assay [2] (setting [6]) and 170 nM in assay [4]. The EC50 in assay [3] (setting [7]) came to 17 nM.

Source of the values: patent US9926304B2, “1-(arylmethyl)quinazoline-2,4(1H,3H)-diones as PARP inhibitors and the use thereof” (Impact Therapeutics, Inc., priority 2011, dated 2018).
